Assay: Drug absorption in human assessed as human intestinal absorption rate
Assay type: ADME, tissue-based, Intestine
For `CCOC(=O)C1=C(C)NC(C)=C(C(=O)OC)C1c1cccc([N+](=O)[O-])c1` (stereo unspecified) [NITRENDIPINE], the “log10(%HIA +10)” value was 1.991.
For `C[C@H](CS)C(=O)N1CCC[C@H]1C(=O)O` [CAPTOPRIL], the “log10(%HIA +10)” value was 1.892.
With `O=C(O)Cc1ccccc1Nc1c(Cl)cccc1Cl` [DICLOFENAC] the “log10(%HIA +10)” value was 2.041.
With `O=c1[nH]c2ccccc2n1C1CCN(CCCC(c2ccc(F)cc2)c2ccc(F)cc2)CC1` [PIMOZIDE] the “log10(%HIA +10)” value was 1.903.
With `CC(C)Cc1ccc(C(C)C(=O)O)cc1` (stereo unspecified) [IBUPROFEN] the “log10(%HIA +10)” value was 2.041.
With `O=C(O)CCC(=O)Nc1ccc(S(=O)(=O)Nc2nccs2)cc1` [SUCCINYLSULFATHIAZOLE] the “log10(%HIA +10)” value was 1.176.
For `CC(=O)OCC(CCn1cnc2cnc(N)nc21)COC(C)=O` [FAMCICLOVIR], the “log10(%HIA +10)” value was 1.903.
With `C[C@@H]1[C@H](O)[C@@H](C)/C=C/C=C/C=C/C=C/C=C/C=C/C=C/[C@H](O[C@@H]2O[C@H](C)[C@@H](O)[C@H](N)[C@@H]2O)C[C@@H]2O[C@](O)(C[C@@H](O)C[C@@H](O)[C@H](O)CC[C@@H](O)C[C@@H](O)CC(=O)O[C@H]1C)C[C@H](O)[C@H]2C(=O)O` [AMPHOTERICIN B] the “log10(%HIA +10)” value was 1.176.
In the case of `O=C(N[C@H](CO)[C@H](O)c1ccc([N+](=O)[O-])cc1)C(Cl)Cl` [CHLORAMPHENICOL], the “log10(%HIA +10)” value is reported as 2.
For `CN(Cc1cc(Br)cc(Br)c1N)C1CCCCC1` [BROMHEXINE], the “log10(%HIA +10)” value was 1.903.
In the case of `N[C@@H](C(=O)N[C@@H]1C(=O)N2C(C(=O)O)=C(CSc3c[nH]nn3)CS[C@H]12)c1ccc(O)cc1` [CEFATRIZINE], the “log10(%HIA +10)” value is reported as 1.934.
For `CNC(=O)c1c(I)c(NC(C)=O)c(I)c(C(=O)O)c1I` [IOTHALAMIC ACID], the “log10(%HIA +10)” value was 1.076.
In the case of `CC(=O)N(CC(O)CO)c1c(I)c(C(=O)NCC(O)CO)c(I)c(C(=O)NCC(O)CO)c1I` (stereo unspecified) [IOHEXOL], the “log10(%HIA +10)” value is reported as 1.176.
In the case of `NS(=O)(=O)c1cc2c(cc1Cl)N=CNS2(=O)=O` [CHLOROTHIAZIDE], the “log10(%HIA +10)” value is reported as 1.528.
With `O=C(O)CN(CCN(CC(=O)O)CC(=O)O)CC(=O)O` [EDETIC ACID] the “log10(%HIA +10)” value was 1.176.
In the case of `N=C(N)N/N=C/c1c(Cl)cccc1Cl` [GUANABENZ], the “log10(%HIA +10)” value is reported as 1.954.
In the case of `CC[C@H](C)C(=O)O[C@H]1C[C@@H](C)C=C2C=C[C@H](C)[C@H](CC[C@@H]3C[C@@H](O)CC(=O)O3)[C@H]21` [LOVASTATIN], the “log10(%HIA +10)” value is reported as 1.608.
For `NC[C@H]1O[C@H](O[C@H]2[C@H](O)[C@@H](O[C@H]3O[C@H](CO)[C@@H](O)[C@H](N)[C@H]3O)[C@H](N)C[C@@H]2N)[C@H](N)C[C@@H]1O` [TOBRAMYCIN], the “log10(%HIA +10)” value was 1.
With `[H]/N=C(/N)N[C@H]1[C@H](O)[C@@H](O)[C@H](O[C@@H]2O[C@@H](C)[C@](O)(C=O)[C@H]2O[C@@H]2O[C@@H](CO)[C@H](O)[C@@H](O)[C@@H]2NC)[C@@H](N/C(N)=N\[H])[C@@H]1O` [STREPTOMYCIN] the “log10(%HIA +10)” value was 1.041.
In the case of `Cc1ccccc1N1C(=O)c2cc(S(N)(=O)=O)c(Cl)cc2NC1C` (stereo unspecified) [METOLAZONE], the “log10(%HIA +10)” value is reported as 1.863.
With `NC[C@@H]1O[C@H](O[C@H]2[C@@H](O)[C@H](O[C@@H]3[C@@H](O)[C@H](N)C[C@H](N)[C@H]3O[C@H]3O[C@H](CN)[C@@H](O)[C@H](O)[C@H]3N)O[C@@H]2CO)[C@H](N)[C@@H](O)[C@@H]1O` [FRAMYCETIN] the “log10(%HIA +10)” value was 1.041.
For GENTAMICIN, the “log10(%HIA +10)” value was 1.
For `Cc1cc(C(=O)NNCc2ccccc2)no1` [ISOCARBOXAZID], the “log10(%HIA +10)” value was 1.903.
With `CC1(C)S[C@@H]2[C@H](NC(=O)[C@H](NC(=O)N3CCNC3=O)c3ccccc3)C(=O)N2[C@H]1C(=O)O` [AZLOCILLIN] the “log10(%HIA +10)” value was 1.
With `CCOC(=O)[C@H](CCc1ccccc1)N[C@@H](C)C(=O)N1[C@H](C(=O)O)C[C@H]2CCCC[C@@H]21` [TRANDOLAPRIL] the “log10(%HIA +10)” value was 1.778.
In the case of `CNC(=C[N+](=O)[O-])NCCSCc1ccc(CN(C)C)o1` [RANITIDINE], the “log10(%HIA +10)” value is reported as 1.798.
With `C[C@H]1[C@H](NC(=O)/C(=N\OC(C)(C)C(=O)O)c2csc(N)n2)C(=O)N1S(=O)(=O)O` [AZTREONAM] the “log10(%HIA +10)” value was 1.041.
In the case of `CCCC(=O)Nc1ccc(OCC(O)CNC(C)C)c(C(C)=O)c1` (stereo unspecified) [ACEBUTOLOL], the “log10(%HIA +10)” value is reported as 1.999.
For `CCN(C)C(=O)Oc1cccc([C@H](C)N(C)C)c1` [RIVASTIGMINE], the “log10(%HIA +10)” value was 2.041.
For `COc1ccc2c3c1O[C@H]1[C@@H](O)C=C[C@H]4[C@@H](C2)N(C)CC[C@@]341` [CODEINE], the “log10(%HIA +10)” value was 2.021.
With `N=c1nc2n(cc1F)[C@@H]1O[C@H](CO)[C@@H](O)[C@@H]1O2` [FLUROCITABINE] the “log10(%HIA +10)” value was 1.623.
For `O=C(O)P(=O)(O)O` [FOSCARNET], the “log10(%HIA +10)” value was 1.431.
In the case of `COc1cccc2c1C(=O)c1c(O)c3c(c(O)c1C2=O)C[C@@](O)(C(=O)CO)C[C@@H]3O[C@H]1C[C@H](N)[C@H](O)[C@H](C)O1` [DOXORUBICIN], the “log10(%HIA +10)” value is reported as 1.176.
In the case of `CCN[C@@H]1C[C@H](N)[C@@H](O[C@H]2OC(CN)=CC[C@H]2N)[C@H](O)[C@H]1O[C@H]1OC[C@](C)(O)[C@H](NC)[C@H]1O` [NETILMICIN], the “log10(%HIA +10)” value is reported as 1.
In the case of `CCOC(=O)[C@H](CCc1ccccc1)N[C@@H](C)C(=O)N1[C@H](C(=O)O)C[C@@H]2CCC[C@@H]21`, the “log10(%HIA +10)” value is reported as 1.845.
For `Nc1cc(N2CCCCC2)nc(N)[n+]1[O-]` [MINOXIDIL], the “log10(%HIA +10)” value was 2.033.
For `Nc1nc(O)c2ncn(COC(CO)CO)c2n1` [GANCICLOVIR], the “log10(%HIA +10)” value was 1.134.
For `CCN(CC)C(=S)SSC(=S)N(CC)CC`, the “log10(%HIA +10)” value was 2.029.
For `CCCCNC(=O)NS(=O)(=O)c1ccc(C)cc1` [TOLBUTAMIDE], the “log10(%HIA +10)” value was 1.978.
With `C[C@]12CCC(=O)C=C1CC[C@@H]1[C@@H]2[C@@H](O)C[C@@]2(C)[C@H]1CC[C@]2(O)C(=O)CO` [HYDROCORTISONE] the “log10(%HIA +10)” value was 2.004.
In the case of `CC(CCc1ccccc1)NCC(O)c1ccc(O)c(C(N)=O)c1` (stereo unspecified) [LABETALOL], the “log10(%HIA +10)” value is reported as 2.021.
For `CC(C)NCC(O)COc1cccc2ccccc12` (stereo unspecified) [PROPRANOLOL], the “log10(%HIA +10)” value was 2.037.
In the case of `NS(=O)(=O)c1cc(C(=O)O)c(NCc2ccco2)cc1Cl` [FUROSEMIDE], the “log10(%HIA +10)” value is reported as 1.851.
In the case of `Cc1c(OCC(F)(F)F)ccnc1C[S+]([O-])c1nc2ccccc2[nH]1` (stereo unspecified) [LANSOPRAZOLE], the “log10(%HIA +10)” value is reported as 1.978.
In the case of `Cc1cccc(C)c1NC(=O)NCCCNC(C)C`, the “log10(%HIA +10)” value is reported as 1.909.
In the case of `O=CN(O)CCCP(=O)(O)O` [FOSMIDOMYCIN], the “log10(%HIA +10)” value is reported as 1.602.
With `OC(Cn1cncn1)(Cn1cncn1)c1ccc(F)cc1F` [FLUCONAZOLE] the “log10(%HIA +10)” value was 2.027.
For `O=C(c1ccccc1)c1ccc2n1CCC2C(=O)O` (stereo unspecified) [KETOROLAC], the “log10(%HIA +10)” value was 2.
In the case of `NC(N)=Nc1nc(CSCCC(N)=NS(N)(=O)=O)cs1` [FAMOTIDINE], the “log10(%HIA +10)” value is reported as 1.681.
In the case of `CC(C)NCC(O)COc1ccc(CC(N)=O)cc1` (stereo unspecified) [ATENOLOL], the “log10(%HIA +10)” value is reported as 1.785.
For `O=C1NS(=O)(=O)c2ccccc21` [SACCHARIN], the “log10(%HIA +10)” value was 1.991.
In the case of `CC(=O)Nc1ccc(O)cc1` [ACETAMINOPHEN], the “log10(%HIA +10)” value is reported as 1.978.
With `COc1ccc2cc([C@H](C)C(=O)O)ccc2c1` [NAPROXEN] the “log10(%HIA +10)” value was 2.037.
With `C[C@@H]1O[C@@H]1P(=O)(O)O` [FOSFOMYCIN] the “log10(%HIA +10)” value was 1.613.
With `NC[C@H]1O[C@H](O[C@H]2[C@H](O)[C@@H](O[C@H]3O[C@H](CO)[C@@H](O)[C@H](N)[C@H]3O)[C@H](N)C[C@@H]2N)[C@H](O)[C@@H](O)[C@@H]1O` [KANAMYCIN] the “log10(%HIA +10)” value was 1.041.
In the case of `Cc1onc(-c2c(F)cccc2Cl)c1C(=O)N[C@@H]1C(=O)N2[C@@H]1SC(C)(C)[C@@H]2C(=O)O` [FLOXACILLIN], the “log10(%HIA +10)” value is reported as 1.699.

Source: ChEMBL document CHEMBL1649380, “Prediction of drug intestinal absorption by new linear and non-linear QSPR” (Eur J Med Chem, 2011)
